Results on 13 compounds are retold here after patent publication US4462992A, “Nitroimidazole radiosensitizers for hypoxic tumor cells and compositions thereof” (priority 1982, dated 1984).

Read-outs that look alike come from different tables or passages of the source.

Data set [1] is described as follows: Pharmacokinetics, localization in tissue in mice bearing B16 melanoma. As to conditions: for concentration at 0.5 h / concentration at 1 h / Kp at 0.5 h / Kp at 1 h: mouse, ip, 1000 mg/kg; for concentration at 0.5 h / concentration at 1 h: 1 g/kg intraperitoneal. It counts as in vivo, mouse (C57/BL). On the procedure:
The drug solution was made in normal saline at a concentration of 50 mg/ml. The drug solution was injected intraperitoneally at a dose level of 1 g/kg to C57/BL mice bearing 15 day old B16 melanoma tumor. At 30 and 60 minute interval after the drug administration, mice were anesthetized, blood sample was taken directly by heart puncture and tumor and brain tissue were removed. Plasma was separated after centrifugation of the whole blood and extracted with methanol. Brain and tumor tissue were homogenized and also extracted with methanol. The methanol extracts were analyzed by reverse phase high-performance liquid chromatography employing 25% methanol as mobile phase. The peak was detected at 320 nm with a retention time of 2.3 min. The flow rate was 2 ml/min.

In data set [2] the test system is hypoxic tumor cells. As to conditions: cited from earlier work.
Data set [3] has as its system Chinese hamster cells line V-79. The experiment in a line: Radiosensitization (enhancement ratio, cobalt-60 irradiation of hypoxic cells). It counts as cell-based. As for the experimental part: (§1) Asynchronous monolayers of cultures of Chinese hamster cells line V-79 were employed in all experiments. The monolayers were derived from exponentially growing cultures. Methods of culturing and handling have been reported earlier by Cooke et al, Rad. Res. 65, 152 (1976). The plated cultures were rendered hypoxic in sealed dural containers capable of holding seven petri dishes, by purging with nitrogen (oxygen-free grade) for one hour. Irradiation was carried out by using a cobalt-60 source at a dose rate of approximately 240 rad/min according to the procedure described by Agrawal et al Rad. Res. 78:532 (1979). A dose of 1400 rad was given to hypoxic cells in glass petri dishes in the presence of a given drug concentration (2000 cells/dish). Cell survival was estimated from unirradiated toxic hypoxic cells exposed to the same drug concentration. Complete survival curves were obtained for each compound at the radiation doses of 400 to 3000 rad. The Do value was calculated for each compound and the ratio of the Do value for the hypoxic control cells to the Do value of the hypoxic drug treated cells provided the sensitized enhancement ratio of the corresponding agent.
(§2) Cultures were incubated for 6 days at 37° C. in an atmosphere of 5% CO2. The resulting colonies were fixed in absolute ethanol and stained with methylene blue and counted.

Data set [4] is described as follows: In vitro cytotoxicity in oxic cells (% survival). It counts as cell-based, Chinese hamster. The following applies: hamster, v-79 cells, oxic, 2 hours, read-out: In vitro cytoxicity in oxic cells (% survival at 2 hours); for viability at 2 h, 100 µM: 0.1 mM; for viability at 2 h, 500 µM: 0.5 mM; for viability at 2 h, 1000 µM: 1.0 mM; for viability at 2 h, 5000 µM: 5.0 mM. As for the experimental part: as §1, §2
(§3) To determine toxicity in vitro, glass petri dishes containing approximately 200 Chinese hamster cells/dish were exposed to a range of concentrations of each drug for 2 hours and/or 4 hours at 37° C. Drug concentrations between 10 μM and 0.5 mM were employed initially.

A short description of data set [5]: In vitro cytotoxicity in hypoxic cells (% survival). It counts as cell-based, Chinese hamster. The following applies: hamster, v-79 cells; for viability at 2 h, 50 µM / viability at 4 h, 50 µM: 0.05 mM; for viability at 2 h, 250 µM / viability at 4 h, 250 µM: 0.25 mM; for viability at 4 h, 10 µM / viability at 4 h, 50 µM / viability at 4 h, 100 µM / viability at 4 h, 250 µM: read-out: In vitro cytoxicity in hypoxic cells (% survival at 4 hours). As for the experimental part:
as §1, §2, §3

Data set [6] deals with Chinese hamster cells line V-79 (oxic). The experiment in a line: In vitro cytotoxicity in oxic cells (% survival). It counts as cell-based. As to conditions: 2 hours. As for the experimental part:
as §1, §2, §3

Setting [7] is: 2 hours, read-out: In vitro cytoxicity in hypoxic cells (% survival at 2 hours).

Consider `O=[N+]([O-])c1nccn1[C@@H]1C=C[C@H](O)[C@@H](CO)O1` [1-(2',3'-didehydro-2',3'-dideoxy-α-D-erythro-hexopyranosyl)-2-nitroimidazole], for which the “tumor concentration relative to brain (Tumor/Brain ratio)” value in data set [1] (30 and 60 min) is listed as “approximately 3 fold”. Besides, the “Ratio of Brain/Plasma, change with time” value in data set [1] (30 to 60 min) is “increased with time”. Moreover, the “Ratio of Tumor/Plasma, change with time” value in data set [1] (30 to 60 min) was “increased with time”. The “Ratio of Tumor/Brain” value in data set [1] (30 min) amounted to 2.87; in data set [1] (60 min), 2.88. Moreover, the concentration at 0.5 h turned out to be 293000 ng/g in data set [1] (b16 melanoma tumor, tumor, 30 min, read-out: (B16 melanoma)); 102000 ng/g in data set [1] (brain, 30 min, read-out: Brain); 1050 µg/mL in data set [1] (plasma, 30 min, read-out: Plasma). For the same compound, the concentration at 1 h was determined as 346000 ng/g in data set [1] (b16 melanoma tumor, tumor, 60 min, read-out: (B16 melanoma)); 120000 ng/g in data set [1] (brain, 60 min, read-out: Brain); 648 µg/mL in data set [1] (plasma, 60 min, read-out: Plasma). The Kp at 0.5 h in data set [1] (brain/plasma, 30 min, read-out: Ratio of Brain/Plasma) was 0.097; in data set [1] (tumor/plasma, 30 min, read-out: Ratio of Tumor/plasma), 0.278. The Kp at 1 h in data set [1] (brain/plasma, 60 min, read-out: Ratio of Brain/Plasma) was 0.18; in data set [1] (tumor/plasma, 60 min, read-out: Ratio of Tumor/plasma) it was 0.534.

As to `O=c1[nH]c(=O)n([C@H]2C[C@H](O)[C@@H](CO)O2)cc1Br` [5-bromodeoxyuridine], in data set [2], the “selectivity for tumor cells” value is recorded as “poor selectivity”.

Turning to `O=c1[nH]c(=O)n([C@H]2C[C@H](O)[C@@H](CO)O2)cc1F` [5-flourodeoxyuridine], the “selectivity for tumor cells” value in data set [2] is given as “poor selectivity”.

As to `O=[N+]([O-])c1nccn1C1O[C@H](CO)[C@@H](O)[C@@H]1O` (stereo partly drawn) [D, 1(D-Arabinofuranosyl)-2-nitroimidazole], in data set [3] (1.0 mM), the “Radiosensitization (enhancement ratio in Chinese hamster cells)” value stood at 1.7. In data set [4], the viability at 2 h, 100 µM stood at 105%; the viability at 2 h, 500 µM is 104%; the viability at 2 h, 1000 µM turned out to be 99%; the viability at 2 h, 5000 µM turned out to be 116%.

On to `O=C(OC[C@H]1O[C@H](n2ccnc2[N+](=O)[O-])[C@@H](OC(=O)c2ccccc2)[C@@H]1OC(=O)c1ccccc1)c1ccccc1` [E, 1(2',3',5tri-O--benzoylD-arabinofuranosyl)-2-nitroimidazole], for which, in data set [3] (0.05 (mM not given)), the “Radiosensitization (enhancement ratio in Chinese hamster cells)” value amounted to 1.0. Further, in data set [5] (setting [7]), the viability at 2 h, 50 µM is 84% and the viability at 2 h, 250 µM is 12%. Further, the viability at 4 h, 10 µM in data set [5] (0.01 mM) is 80%. For the same compound, in data set [5], the viability at 4 h, 50 µM came out at 76% and the viability at 4 h, 250 µM is 2.6%. Also, the viability at 4 h, 100 µM in data set [5] (0.1 mM) was 46%.

In the case of `O=C(OC[C@H]1O[C@@H](n2ccnc2[N+](=O)[O-])[C@@H](OC(=O)c2ccccc2)[C@@H]1OC(=O)c1ccccc1)c1ccccc1` [F, 1(2',3',5tri-O--benzoylD-arabinofuranosyl)-2-nitroimidazole], the “Radiosensitization (enhancement ratio in Chinese hamster cells)” value in data set [3] (0.1 mM) is given as 1.1. Moreover, in data set [5] (2 hours, 0.01 mM, read-out: In vitro cytoxicity in hypoxic cells (% survival at 2 hours)), the viability at 2 h, 10 µM stood at 102%. Moreover, in data set [5] (setting [7]), the viability at 2 h, 50 µM amounted to 102% and the viability at 2 h, 250 µM worked out at 105%. Moreover, the viability at 2 h, 100 µM in data set [5] (2 hours, 0.1 mM, read-out: In vitro cytoxicity in hypoxic cells (% survival at 2 hours)) was 97%. For the same compound, in data set [5] (0.01 mM), the viability at 4 h, 10 µM came to 103%. Moreover, in data set [5], the viability at 4 h, 50 µM came to 104% and the viability at 4 h, 250 µM turned out to be 73%. The viability at 4 h, 100 µM in data set [5] (0.1 mM) was 89%.

Take `O=[N+]([O-])c1nccn1C1C[C@H](O)[C@@H](CO)O1` (stereo partly drawn) [G, 1(2-deoxy-D-erythro-pentofuranosyl)-2-nitroimidazole]: in data set [3] (1.0 mM), the “Radiosensitization (enhancement ratio in Chinese hamster cells)” value was found to be 1.9. Also, in data set [4], the viability at 2 h, 100 µM is 95.3%; the viability at 2 h, 500 µM came to 88.9%; the viability at 2 h, 1000 µM was 93%; the viability at 2 h, 5000 µM came out at 82.4%.

Take `O=[N+]([O-])c1nccn1C1C[C@H](O)[C@@H](CO)O1` (stereo partly drawn) [H, 1(2-deoxy-D-erythro-pentofuranosyl)-2-nitroimidazole]: in data set [3] (1.0 mM), the “Radiosensitization (enhancement ratio in Chinese hamster cells)” value is 1.9. The “In vitro cytoxicity in oxic cells (% survival at 2 hours)” value in data set [6] (0.1 mM) is recorded as 95.3%; in data set [6] (0.5 mM, 120 min, 500 µM), 94.2%; in data set [6] (1.0 mM, 120 min, 1000 µM) it was 98.2%; in data set [6] (5.0 mM, 120 min, 5000 µM) it was 81.3%.

Consider `O=[N+]([O-])c1nccn1C1CCCO1` (centres unmarked) [I, 1-(Tetrahydro-2-furanyl)-2-nitroimidazole], for which the “Radiosensitization (enhancement ratio in Chinese hamster cells)” value in data set [3] (1.0 mM) is 1.6. For the same compound, in data set [4], the viability at 2 h, 100 µM was determined as 98.8%; the viability at 2 h, 500 µM was determined as 101%; the viability at 2 h, 1000 µM was 87.1%; the viability at 2 h, 5000 µM is 79.5%.

Consider `O=[N+]([O-])c1nccn1C1CCCCO1` (centres unmarked) [J, 1-(Tetrahydro-2-pyranyl)-2-nitroimidazole], for which the “Radiosensitization (enhancement ratio in Chinese hamster cells)” value in data set [3] (1.0 mM) turned out to be 1.7. In data set [4], the viability at 2 h, 100 µM was determined as 106%; the viability at 2 h, 500 µM came to 101%; the viability at 2 h, 1000 µM is 105%; the viability at 2 h, 5000 µM was found to be 94.9%.

`O=[N+]([O-])c1nccn1C1CCCC1O` (centres unmarked) [K, 1-(2-Hydroxycyclopentyl)-2-nitroimidazole]: in data set [3] (1.0 mM), the “Radiosensitization (enhancement ratio in Chinese hamster cells)” value amounted to 2.0. Moreover, in data set [4], the viability at 2 h, 100 µM is 112%; the viability at 2 h, 500 µM was found to be 110%; the viability at 2 h, 1000 µM was determined as 107%; the viability at 2 h, 5000 µM came out at 94.7%.

For `O=[N+]([O-])c1nccn1C1CCCCC1O` (centres unmarked) [L, 1-(2-Hydroxycyclohexyl)-2-nitroimidazole], in data set [3] (1.0 mM), the “Radiosensitization (enhancement ratio in Chinese hamster cells)” value stood at 2.0. Also, in data set [4], the viability at 2 h, 100 µM turned out to be 98.2%; the viability at 2 h, 500 µM came out at 90.3%; the viability at 2 h, 1000 µM was found to be 86%.

As for `O=[N+]([O-])c1nccn1COCCO` [M, 1-[(2-hydroxyethoxy)methyl]-2-nitroimidazole], in data set [3] (1.0 mM), the “Radiosensitization (enhancement ratio in Chinese hamster cells)” value came to 2.1. Also, in data set [4], the viability at 2 h, 100 µM stood at 99.5%; the viability at 2 h, 500 µM turned out to be 106%; the viability at 2 h, 1000 µM is 104%.
